This note sets out measurements from US20120238488A1, “COMPOUNDS AND METHODS FOR TREATING NEOPLASIA” (priority 2009, published 2012).

Broadly, the GI50 is the concentration giving 50% growth inhibition. By TGI is commonly meant the concentration at which net growth stops.

The test system of one data set is T470 (Breast). The data set can be described thus: SRB assay, T470. In kind it is cell-based, human. To be noted: 48 h. How it is done:
SRB assays were performed according to standard National Cancer Institute Guidelines. Briefly, human tumor cells from different cancer panels were seeded into 96 well plates in 100 μL (plating densities ranging from 5-40,000 cells/well depending on the doubling time of individual cell lines) in serum-containing media for twenty-four hours prior to the addition of the compounds to be assayed. After 24 hours, one plate of each cell line was fixed in situ with trichloroacetic acid (TCA). The fixed slides were used to determine the cell population for each cell line at the time of drug addition (Tz). Each compound to be tested was solubilized in DMSO and the desired concentration was then added to the medium and diluted serially 1:10 to provide a total of five or ten drug concentrations plus control (in a final volume of 200 μL). The starting dose before any dilution was 100 uM for all compounds.
Following drug addition, each culture was incubated for forty-eight hours. The assay was terminated with the addition of cold TCA. The supernatant was discarded, and the plates were washed with tap water and air dried. Sulforhodamine B (SRB) solution was then added to each well. After staining, the bound stain was solubilized and the absorbance was read on an automated plate reader at a wavelength of 515 nm.
Using the absorbance measurements [time zero, (Tz), control growth, (C), and test growth in the presence of drug at the ten concentration levels (Ti)], the percentage growth was calculated at each of the drug concentrations levels. Percentage growth inhibition was calculated as:
[(Ti−Tz)/(C−Tz)]×100 for concentrations for which Ti>/=Tz […]
Three dose response parameters were calculated for each experimental agent. […] The drug concentration resulting in total growth inhibition (TGI) was calculated from Ti=Tz. […]
Values were calculated for each of these three parameters when the level of activity was reached; however, if the effect was not reached or was exceeded, the value for that parameter was expressed as greater or less than the maximum or minimum concentration tested. […]

The test system of data set [1] is membrane androgen receptor. The data set can be described thus: Membrane androgen receptor competition assay, DU145 cells. It counts as binding. To be noted: 40 μM compound 30 minutes before 40 μM testosterone-HSA-FITC, FIGS. 3B, 3C. From the text:
To assess whether compounds of the invention were capable of binding directly to the membrane androgen receptor, a fluorescent-based assay was used to measure the ability of a given compound to preclude binding of a fluorescent mAR ligand (testosterone-HSA-FITC conjugates) to its receptor in LNCaP and DU145 cells (see Kampa, M et al, 2002, Faseb J 16:1429-1431, and PCT/U52007/007913).
The detection of membrane androgen receptors using fluorescent testosterone-serum albumin conjugates was performed as described by Kampa, M et al, 2002, Faseb J 16:1429-1431, with minor modifications. Briefly, LNCaP or DU145 prostate cancer cells were cultured on 0.1% gelatin-coated glass coverslips in RPMI 1640 medium supplemented with 2 mM L-Glutamine, 10% Fetal Bovine Serum and 1% Penicillin/Streptomycin for at least 48 hours until reaching 70% confluency. After a 24 hour serum starvation period, cells were incubated with 40 μM testosterone-HSA-FITC for 1 hour at room temperature. The cells were then washed three times with phosphate buffered saline (PBS) and fixed with 3.7% formaldehyde in PBS for 5 minutes at room temperature. Human serum albumin-FITC was used as a control for background staining. […] Coverslips were mounted on slides by using the Slow Fade/Antifade Reagent (Molecular Probes) and studied under a LEICA DMLB microscope, equipped with the appropriate fluorescence filters and a Leica DC 300F camera. Specimens were analyzed using the Leica FW4000 computer program.
To determine the capacity of a given compound to preclude binding of fluorescent testosterone-HSA conjugates (TAC) to the membrane androgen receptor, starved LNCaP or DU145 cells on coverslips prepared as described above were pre-treated with 40 μM of the indicated compound for 30 minutes prior to the addition of testosterone-HSA-FITC. […] Specimens were prepared and analyzed as described above. Compounds binding to the membrane androgen receptor preclude binding of fluorescent testosterone-HSA conjugates to their target and abolish membrane-specific fluorescence.

Data set [2] deals with membrane androgen receptor. The data set can be described thus: Membrane androgen receptor competition assay, LNCaP cells. In kind it is binding. To be noted: 40 μM compound 30 minutes before 40 μM testosterone-HSA-FITC, FIG. 3A.
Method: After a 24 hour serum starvation period, cells were incubated with 40 μM testosterone-HSA-FITC for 1 hour at room temperature. […] Human serum albumin-FITC was used as a control for background staining. After permeabilization with ice-cold acetone for 4 minutes at room temperature, cell nuclei were stained with DAPI. Coverslips were mounted on slides by using the Slow Fade/Antifade Reagent (Molecular Probes) and studied under a LEICA DMLB microscope, equipped with the appropriate fluorescence filters and a Leica DC 300F camera. Specimens were analyzed using the Leica FW4000 computer program.
To determine the capacity of a given compound to preclude binding of fluorescent testosterone-HSA conjugates (TAC) to the membrane androgen receptor, starved LNCaP or DU145 cells on coverslips prepared as described above were pre-treated with 40 μM of the indicated compound for 30 minutes prior to the addition of testosterone-HSA-FITC. At the end of the incubation period, cells were washed twice with PBS and 40 μM of testosterone-HSA-FITC was added. Specimens were prepared and analyzed as described above.
Data set [3] relates to DU145 prostate cancer cells. The data set can be described thus: MTT assay, combination with paclitaxel. To be noted: DU145, FIG. 1E. How it is done: Cell proliferation/viability was assessed by the MTT [3-(4,5-dimethylthiazol-2-yl)-2,5-diphenyltetrazolium bromide] assay, which is commercially available (Sigma, St. Louis, Mo.). Cells were cultured in 96-well plates for twenty-four hours (7-10.000 cells/well) and incubated with various concentrations of the compounds of the invention in serum-containing medium (or left untreated) for seventy-two hours. At the end of incubation, the medium was aspirated and MTT dissolved in RPMI 1640 w/o phenol red was added to each well to a final concentration of 0.25 mg/ml. After four hours incubation in the dark (37° C., 5% CO2) the supernatant was discarded. The converted dye (blue formazan crystals) was solubilized by adding 200 μl dimethylsulfoxide to each well. Absorbance was measured at 550 nm with reference at 655 nm using a spectrophotometer with the respective filters. All assays were performed in triplicate.

Data set [4] relates to A549 xenografts (lung carcinoma). The data set can be described thus: A549 xenograft anti-tumor activity. In kind it is in vivo, Nod/Scid mice. Particulars: for DT/DC / post mortem analysis on excised tumors: tumor growth inhibition: A549 xenografts, compound 56 20 mgk, paclitaxel 18 mgk; for DT/DC: day 24, intraperitoneal. The procedure: All administrations were intraperitoneal.
At day 20 post inoculation (dpi), mean tumor volume was measured at 117.6 mm^3.
Compound 56 was administered intraperitoneallly using a [(QD×5;2) ×5] scheme. Paclitaxel, used as a positive control, was injected twice weekly for 5 cycles (Tuesday & Friday).

For the compound `C[C@]12CCC(=NOCCN)C=C1CCC1C2CC[C@]2(C)C(=O)CCC12` (stereo partly drawn) [Compound 12, (10R,13S)-3-(2-aminoethoxyimino)-10,13-dimethyl-2,3,7,8,9,10,11,12,13,14,15,16-dodecahydro-1H-cyclopenta[a]phenanthren-17(6H)-one], the CC50 in the data set on T470 (Breast) (Homo sapiens, read-out: LC50) was 69.6 µM. For the same compound, it took 5.98 µM to inhibit growth in the data set on T470 (Breast) (Homo sapiens, T470, SRB) by half (GI50). For the same compound, the TGI in the data set on T470 (Breast) (T470, SRB) worked out at 26.42 µM. The “membrane fluorescence of TAC-FITC after pre-treatment (binding to mAR precluded)” value in data set [1] and in data set [2] was “devoid of membrane fluorescence” in each case. Moreover, the “enhancement of the cytotoxic action of paclitaxel” value in data set [3] (1 or 2 uM compound 12 added to paclitaxel 20 nM) is on record as “clearly enhances the cytotoxic action”.

`C[C@]12CCC(=NOC3CCNC3)CC1CCC1C2CC[C@]2(C)C(=O)CCC12` (stereo partly drawn) [Compound 56, (10S,13S)-10,13-dimethyl-3-(pyrrolidin-3-yloxyimino)tetradecahydro-1H-cyclopenta[a]phenanthren-17(2H)-one]: the weight changes entry in data set [4] (A549 xenograft mice, 20 mgk intraperitoneal) is listed as “no significant weight changes”. Also, in data set [4], the DT/DC was −10.47% and the “post mortem analysis on excised tumors: tumor growth inhibition” value is “statistical significant tumor growth inhibition”. Moreover, the “anti-tumor activity in A549 xenografts (FIG. 2B)” value in data set [4] (mouse, in vivo) is listed as “has anti-tumor activities”. Moreover, the “membrane fluorescence of TAC-FITC after pre-treatment (binding to mAR precluded)” value in data set [1] was “devoid of membrane fluorescence”.

Consider `CC(=O)O[C@H]1C(=O)[C@@]2(C)[C@H]([C@H](OC(=O)c3ccccc3)[C@]3(O)C[C@H](OC(=O)[C@H](O)[C@@H](NC(=O)c4ccccc4)c4ccccc4)C(C)=C1C3(C)C)[C@]1(OC(C)=O)CO[C@@H]1C[C@@H]2O` [Paclitaxel, reference compound], for which, in data set [4], the DT/DC is −46,68% and the “post mortem analysis on excised tumors: tumor growth inhibition” value is reported as “statistical significant tumor growth inhibition”. In addition, the cytotoxic activity alone result in data set [3] (paclitaxel 20 nM) is recorded as “limited cytotoxic activity”.
